Reference: patent publication US5721366A, “Platelet aggregation inhibitors” (G. D. Searle & Co, priority 1995, dated 1998)
Counter-ions that a name gives are not always drawn.

How the values were obtained:
[1] = test system: Dog platelet aggregation (platelet-rich plasma); test: In-Vitro Platelet Aggregation in PRP (Dog), collagen-induced; format: cell-based; conditions: for IC50: collagen-induced aggregation (33 μg/ml final), 37° C.; for inhibition at 1 µM: collagen-induced aggregation
Description: In-Vitro Platelet Aggregation in PRP--(Dog)
Healthy male or female dogs were fasted for 8 hours prior to drawing blood; then 60 ml whole blood was collected using a butterfly needle and 30 cc plastic syringe with 6 ml of 0.129M buffered sodium citrate (3.8%) (drawn from a minimum of 3 dogs and blood was pooled). The syringe was rotated carefully as blood was drawn to mix the citrate. Platelet-rich plasma (PRP) was prepared by centrifugation at 975×g for 3.17 minutes at room temperature, allowing the centrifuge to coast to a stop without braking. The PRP was removed from the blood with a plastic pipette and placed in a plastic capped 50 ml Corning conical sterile centrifuge tube which was held at room temperature. Platelet poor plasma (PPP) was prepared by centrifuging the remaining blood at 2000×g for 15 minutes at room temperature allowing the centrifuge to coast to a stop without braking. The platelet count in the PRP was routinely 2-4×10^8 platelets per ml. 400 μl of the PRP preparation and 50 μl of the compound to be tested or saline were preincubated for 2 minutes at 37° C. in a BioData aggregometer (BioData, Horsham, Pa.). 50 μl of collagen (diluted 1:3 with 5% dextrose and water solution, 33 μg/ml final concentration, equine tendon, Chronolog, Havertown, Pa.) was added to the cuvettes and the aggregation was monitored for 3 minutes. All compounds are tested in duplicate.
Results are calculated as follows:
Percent of control=[(maximal OD minus initial OD of compound) divided by (maximal OD minus initial OD of control saline)]×100. The % inhibition=100-(percent of control).
(§1) (NT in the following table indicates not tested.)

[2] = test system: Human platelet aggregation (platelet-rich plasma); test: Inhibition of Human Platelet Aggregation (PRP), collagen-induced; format: cell-based; conditions: collagen-induced aggregation (4 μg/ml final), 37° C.
Description: Inhibition of Human Platelet Aggregation (PRP)
Platelet rich plasma was prepared from citrated whole blood (3.8% Na citrate, 1:10 in 30 ml blood) withdrawn from the antecubital vein (n=1). PRP was prepared by centrifugation (Sorvall RC3C, DuPont, Wilmington, Del.) of the whole blood at 1000×g for 3 min, allowing the centrifuge to stop without braking. Platelet poor plasma (PPP) was prepared by centrifugation of PRP at 2000×g for 10 min. […] Aggregation was measured in a 4 channel aggregometer (model PAP-4C, Bio/Data Corp., Hatboro, Pa.). Aliquots of PPP were used to standardize the aggregometer for measurement of maximum light transmission. Platelet aggregation was measured as an increase in light transmission.
PRP (430 μl aliquot) was preincubated with 50 μl of various concentrations of compound (dissolved in 10% ETOH/water at a concentration of 10^-3 M. Compounds were diluted to desired concentration with 0.9% NaCl) for 2 min at 37° C., with stirring at 900 rpm, in the aggregometer. The stock collagen (Chronolog, Havertown, Pa., equine tendon) was diluted 1:10 with a 5% dextrose and water solution. The vehicle control response was obtained by adding 20 μl diluted collagen to the untreated aliquot of PRP+50 μl saline. Final collagen concentration was 4 μg/ml. Aggregation was recorded for 3 min following the addition of collagen. […] Percent inhibition was calculated by comparing treated and control samples. IC50 's were calculated graphically from dose-response curves. Average values and standard errors were calculated using the IC50 's of the individual experiments. Statistical analyses were done by an unequal variance, unpaired Student's t-test [Minitab Reference Manual, Minitab Inc., State College, Pa. (1988)]. Statistical significance was assumed when p<0.05 was found.
as §1

[3] = Canis lupus familiaris, Platelet

| Molecule | IC50 [1, 3] | also measured |
| --- | --- | --- |
| 3[S]-[[[[1-[4-(aminoiminomethyl)phenyl]-2-oxo-3-pyrrolidinyl]amino]carbonyl]amino]benzenepropanoic acid trifluoroacetate. Enantiomerically Enriched Isomer B [Example 47] | – | IC50 [1]: 62 nM |
| N=C(N)c1ccc(N2CCCC(CC(=O)NC(CC(=O)O)c3ccco3)C2=O)cc1 (mixture of isomers) [Example 34G, 3-[[[1-[4-(aminoiminomethyl)phenyl]2-oxo-3-piperidinyl]acetyl]amino]-3-(2-furanyl]propanoic acid, diastereomers] | 190 nM | – |
| N=C(N)c1ccc(N2CCC(CC(=O)NC(CC(=O)O)c3ccoc3)C2=O)cc1 (single isomer, unassigned) [Example 51] | 50 nM | – |
| C=C[C@H](CC(=O)O)NC(=O)CC1CCN(c2ccc(C(=N)N)cc2)C1=O (single isomer, unassigned; isomer a) [Example 4, 3S-[[[1-[4-(aminoiminomethyl)phenyl]-2-oxo-3-pyrrolidinyl]acetyl]amino]-4-pentenoic acid, monohydrochloride, enantiomerically enriched isomer A.] | – | IC50 [1]: 52 nM; IC50 [2]: 55 nM |
| C=C[C@H](CC(=O)O)NC(=O)CC1CCCN(c2ccc(C(=N)N)cc2)C1=O (single isomer, unassigned; isomer a) [Example 34J] | – | inhibition at 1 µM ([1]; Canis lupus familiaris): 13% |
| N=C(N)c1ccc(N2CCC(NC(=O)NCCC(=O)O)C2=O)cc1 (single isomer, unassigned; isomer a) [Example 41, 3-[[[[1-[4-(aminoiminomethyl)phenyl]-2-oxo-3-pyrrolidinyl]amino]carbonyl]amino]propanoic acid trifluoroacetate. Enantiomerically Enriched Isomer A.] | – | inhibition at 1 µM ([1]; Canis lupus familiaris): 30%; IC50 ([2]; Homo sapiens, Platelet): 150 nM |
| C=C[C@H](CC(=O)O)NC(=O)CC1CCN(c2ccc(C(=N)N)cc2)C1=O (single isomer, unassigned; isomer b) [Example 6, 3S-[[[1-[4-(aminoiminomethyl)phenyl]-2-oxo-3-pyrrolidinyl]acetyl]amino]-4-pentenoic acid, enantiomerically enriched isomer B] | – | IC50 [1]: 1600 nM; IC50 [2]: 850 nM |
| N=C(N)c1ccc(N2CCCC(CC(=O)NCCC(=O)O)C2=O)cc1 (single isomer, unassigned; isomer b) [Example 34B, 3-[[[1-[4-(aminoiminomethyl)phenyl]-2-oxo-3-piperidinyl]acetyl]amino]propanoic acid, enantiomerically enriched isomer B] | 240 nM | – |
| N=C(N)c1ccc(N2CCCC(CC(=O)NC(CC(=O)O)c3ccsc3)C2=O)cc1 (single isomer, unassigned; isomer b) [Example 34C, 3-[[[1-[4-(aminoiminomethyl)phenyl]-2-oxo-3-piperidinyl]acetyl]amino]-3-(3-thienyl)propanoic acid, enantiomerically enriched isomer B] | 160 nM | – |
| N=C(N)c1ccc(N2CCCC(CC(=O)NC(CC(=O)O)c3ccoc3)C2=O)cc1 (single isomer, unassigned; isomer b) [Example 34E] | 70 nM | – |
| C=C[C@H](CC(=O)O)NC(=O)CC1CCCN(c2ccc(C(=N)N)cc2)C1=O (single isomer, unassigned; isomer b) [Example 34L] | 59 nM | – |
| C#C[C@H](CC(=O)O)NC(=O)CC1CCCN(c2ccc(C(=N)N)cc2)C1=O (single isomer, unassigned; isomer b) [Example 34N] | 59 nM | – |
| N=C(N)c1ccc(N2CCC(CC(=O)NCCC(=O)O)C2=O)cc1 (single isomer, unassigned; isomer b) [Example 36, 3-[[[1-[4-(aminoiminomethyl)phenyl]-2-oxo-3-pyrrolidinyl]acetyl]amino]propionic acid, trifluoroacetate, enantiomerically enriched isomer B.] | 91 nM | IC50 ([2]; Homo sapiens, Platelet): 110 nM |
| N=C(N)c1ccc(N2CCC(NC(=O)NCCC(=O)O)C2=O)cc1 (single isomer, unassigned; isomer b) [Example 43, 3-[[[[1-[4-(aminoiminomethyl)phenyl]-2-oxo-3-pyrrolidinyl]amino]carbonyl]amino]propanoic acid trifluoroacetate. Enantiomerically Enriched Isomer B.] | 90 nM | – |
| C[C@H](CC(=O)O)NC(=O)NC1CCN(c2ccc(C(=N)N)cc2)C1=O (single isomer, unassigned; isomer b) [Example 45] | 39 nM | – |
| N=C(N)c1ccc(N2CCC(NC(=O)NC[C@H](NC(=O)OCc3ccccc3)C(=O)O)C2=O)cc1 (single isomer, unassigned; isomer b) [Example 49] | 54 nM | – |
| C=C[C@H](CC(=O)O)NC(=O)CC1CCN(c2ccc(C(=N)N)cc2)C1=O (stereo partly drawn) [Example 2, 3(S)-[[[1-[4-(aminoiminomethyl)phenyl]-2-oxo-3-pyrrolidinyl]acetyl]amino]-4-pentenoic acid, monohydrochloride] | 72 nM | – |
| N=C(N)c1ccc(N2CCC(CC(=O)NCCC(=O)O)C2=O)cc1 (centres unmarked) [Example 8, 3-[[[1-[4-(aminoiminomethyl)phenyl]-2-oxo-3-pyrrolidinyl]acetyl]amino]propionic acid] | 180 nM | IC50 ([2]; Homo sapiens, Platelet): 180 nM |
| CC(CC(=O)O)NC(=O)CC1CCN(c2ccc(C(=N)N)cc2)C1=O (centres unmarked) [Example 10, 3-[[[-[4-(aminoiminomethyl)phenyl]-2-oxo-3-pyrrolidinyl]acetyl]amino]butanoic acid] | 170 nM | IC50 ([2]; Homo sapiens, Platelet): 260 nM |
| C#C[C@H](CC(=O)O)NC(=O)CC1CCN(c2ccc(C(=N)N)cc2)C1=O (stereo partly drawn) [Example 14, 3(S) -[[[1-[4-(aminoiminomethyl)phenyl]-2-oxo-3-pyrrolidinyl]acetyl]amino]-4-pentynoic acid] | 120 nM | – |
| C[Si](C)(C)C#C[C@H](CC(=O)O)NC(=O)CC1CCCN(c2ccc(C(=N)N)cc2)C1=O (stereo partly drawn) [Example 22, 3S-[[[1-[4-(aminoiminomethyl)phenyl]-2-oxo-3-piperidinyl]acetyl]amino]-5-(trimethylsilyl)-4-pentynoic acid] | 180 nM | – |
| C#CC(CC(=O)O)NC(=O)CC1CCCN(c2ccc(C(=N)N)cc2)C1=O (centres unmarked) [Example 24, 3-[[[1-[4-(aminoiminomethyl)phenyl]-2-oxo-3-piperidinyl]acetyl]amino]-4-pentynoic acid.] | 190 nM | – |
| CC(C)(C)C#CC(CC(=O)O)NC(=O)CC1CCCN(c2ccc(C(=N)N)cc2)C1=O (centres unmarked) [Example 26, 3-[[[1-[4-(aminoiminomethyl)phenyl]-2-oxo-3-piperidinyl]acetyl]amino]-6,6-dimethyl-4-heptynoic acid] | 590 nM | – |
| C=C[C@H](CC(=O)O)NC(=O)CC1CCCN(c2ccc(C(=N)N)cc2)C1=O (stereo partly drawn) [Example 34, 3(S)-[[[1-[4-(aminoiminomethyl)phenyl]-2-oxo-3-piperidinyl]acetyl]amino]-4-pentenoic acid.] | 120 nM | – |
| COc1ccc(C(CC(=O)O)NC(=O)CC2CCCN(c3ccc(C(=N)N)cc3)C2=O)cc1 (centres unmarked) [Example 34I, 3-[[[1-[4-(aminoiminomethyl)phenyl]-2-oxo-3-piperidinyl]acetyl]amino]-3-(4-methoxyphenyl)propanoic acid] | 180 nM | – |
| N=C(N)c1ccc(N2CCC(NC(=O)NCCC(=O)O)C2=O)cc1 (centres unmarked) [Example 38, 3-[[[[1-[4-(aminoiminomethyl)phenyl]-2-oxo-3-pyrrolidinyl]amino]carbonyl]amino]propionic acid, trifluoroacetate.] | 125 nM | – |
